Consider 12 molecules from patent US20240343710A1, “HETEROCYCLIC COMPOUNDS AND METHODS OF USE THEREOF” (1cBio, Inc., priority 2023, published 2024).

SMILES strings stand for the structures. Where a name gives a salt, the structure may show the parent alone. Read-outs that look alike come from different tables or passages of the source. Where only a bound is given, the exact number is not on record here.

The target in one experiment is recombinant human PARP1 (Homo sapiens, UniProt P09874). In words: PARP1 fluorescence polarization binding assay. As to conditions: GST-tagged PARP1 20 nM, PARP1-FL probe 3 nM. Here is the method:
In some embodiments, the biological assay is described in the Examples herein. In some embodiments, the biological assay measures PARP-1 binding by way of fluorescence polarization measurements. In some embodiments, binding of a test compound to recombinant human PARP-1 reduces the amount of binding of a fluorescent probe, and consequently reduces the detected level of fluorescence polarization. In some test compound stock solutions are prepared in a solvent, e.g., DMSO, and are serially diluted into a range of concentrations, e.g., 15 concentrations, 14 concentrations, 13 concentrations, 12 concentrations, 11 concentrations, 10 concentrations, 9 concentrations, 8 concentrations, 7 concentrations, 6 concentrations, or 5 concentrations, by a dilution factor, e.g., a 10-fold dilution factor, a 9-fold dilution factor, an 8-fold dilution factor, a 7-fold dilution factor, a 6-fold dilution factor, a 5-fold dilution factor, a 4-fold dilution factor, a 3-fold dilution factor, or a 2-fold dilution factor. In some embodiments, the serial dilutions, e.g., 100 nL of serial dilution, 90 nL of serial dilution, 80 nL of serial dilution, 70 nL of serial dilution, 60 nL of serial dilution, 50 nL of serial dilution, 30 nL of serial dilution, 20 nL of serial dilution, or 10 nL of serial dilution, are added to a multi-welled plate, e.g., a 1536-well plate, a 384-well plate, or a 96-well plate. In some embodiments, PARP-1, e.g., GST-tagged PARP-1, is diluted in assay buffer, e.g., 50 μL of assay buffer, 40 μL of assay buffer, e.g., 30 μL of assay buffer, 20 μL of assay buffer, 10 μL of assay buffer, or 5 μL of assay buffer, and is added to the plate. In some embodiments, the plate is centrifuged, e.g., at 1000 rpm for 1 min, and incubated, e.g., incubated for 30 minutes at room temperature (RT). In some embodiments, a fluorescent probe, e.g., 10 μL of 6 nM PARP1-FL (TOCRIS, Cat #6461), is diluted in an assay buffer and is added to the plate. In some embodiments, the final concentrations of PARP-1 and fluorescent probe are 20 nM and 3 nM, respectively, in a total volume of 20 μL. In some embodiments, the plate is centrifuged, e.g., at 1000 rpm for 1 minute, and the assay plate is incubated, e.g., for 4 h at RT. In some embodiments, the samples in each well are read using a plate reader, e.g., an Envision instrument using excitation=480 nm, and emission wavelength=FITC FP-P pol 535 nm & FITC FP-S pol 535 nm). In some embodiments, percent inhibition is calculated from mP values using Inhibition (%)=[1−(mPc−mPL)/(mPH−mPL)]×100%, where mPc, mPL, and mPH are the mP values of test compound, Low controls, and High controls, respectively. In some embodiments, binding IC50 values are calculated using XLFit (equation 201: y=A+((B−A)/(1+((x/C)^D))), where A=bottom, B=top, C=IC50, and D=slope) with a floating top and bottom for curves.
Compounds of the present disclosure were tested in a PARP1 fluorescence polarization binding assay at Pharmaron (Beijing, P.R. China). In this biochemical assay, binding of test compound to recombinant human PARP1 reduces the amount of binding of a fluorescent probe, and consequently reduces the detected level of fluorescence polarization. Test compound stock solutions were prepared in DMSO and then serially diluted into 10 concentrations by 3-fold dilution in a 384-well plate using a TECAN EVO200. Alternatively, a single concentration was prepared. 60 nL of each dilution was transferred to the plate using an Echo550 (Labcyte), and then 10 μL 40 nM GST-tagged PARP1 (BPS Bioscience, Cat #80501), diluted in assay buffer (50 mM Tris pH 8.0, 0.001% Triton X-100, 10 mM MgCl2, 150 mM NaCl), was added to the plate. After a centrifugation at 1000 rpm for 1 min, the assay plate was incubated for 30 min at RT. 10 μL 6 nM PARP1-FL (TOCRIS, Cat #6461), diluted using assay buffer, was then added to the plate. The final concentrations of PARP1 and PARP1-FL were 20 nM and 3 nM, respectively, in a total volume of 20 μL. […]
Background: Polarisation of emitted light reports the rotation of a fluorescent probe.

In a further experiment the target is recombinant human PARP2 (Homo sapiens, UniProt Q9UGN5). Kind of experiment: PARP2 fluorescence polarization binding assay. As to conditions: read-out: PARP2 % inh at 10 μM.
The subject of experiment [1] is DLD-1 BRCA2(−/−) colorectal adenocarcinoma cells. Kind of experiment: Cell viability assay (Cell Titer-Glo, 7 days), DLD-1 BRCA2(−/−). Type of experiment: cell-based. As to conditions: Homo sapiens, 168 h, DLD-1 BRCA2(−/−) cells. The source says: (§1) In some embodiments, the biological assay measures the effects that compounds of the present disclosure may have on the viability of cells, e.g., the viability of cancer cells. In some embodiments, DLD-1 wild-type and DLD-1 BRCA2(−/−) colorectal adenocarcinoma cells, an isogenic pair of cell lines differing in the presence and absence, respectively, of both BRCA2 alleles, are used to measure the effect of the disclosed compounds on the viability of cancer cells. In some embodiments, the cells are harvested during the logarithmic growth period, counted, and seeded at a specified count in the wells of a 96- or 384-well cell culture plate. In some embodiments, after seeding, the cells are incubated, e.g., at 37° C., 5% CO2 overnight. In some embodiments, the cells are treated with compounds, e.g., with serially diluted test compounds at 8-11 concentrations within a desired concentration range, e.g., from 1 nM-10 μM, for the generation of dose-response curves. In some embodiments, the plate is further incubated, e.g., for another 3-7 days in a humidified incubator at 37° C. and 5% CO2. In some embodiments, cell viability is assessed by luminescence measurement after addition of Cell Titer-Glo reagent (Promega, Madison, Wis.) according to the manufacturer's instructions. In some embodiments, cell viability IC50 values are calculated using XLFit, equation 201: y=A+((B−A)/(1+((x/C)^D))), where A=bottom, B=top, C=IC50, and D=slope. In some embodiments, the effects of the test compounds on the viability of other cell lines such as MDA-MB-436, MDA-MB-231, SUM149PT, HCC1395, and UWB1.289 are determined in an analogous method.
(§2) Compounds of the present disclosure were tested for their effects on the viability of cancer cells. DLD-1 wild-type and DLD-1 BRCA2(−/−) colorectal adenocarcinoma cells, an isogenic pair of cell lines differing in the presence and absence, respectively, of both BRCA2 alleles, were used. The cells were harvested during the logarithmic growth period, counted, and seeded at 50 cells/well for DLD-1 wild-type and 200 cells/well for DLD-1 BRCA2(−/−) in a 384-well cell culture plate. After seeding, cells were incubated at 37° C., 5% CO2 overnight. Cells were treated with serially diluted test compounds at 10 concentrations (e.g., from 1.5 nM-30 μM) for generation of dose response curves, or at a single concentration. The plate was further incubated for another 7 days in a humidified incubator at 37° C. and 5% CO2. Cell viability was assessed by luminescence measurement after addition of Cell Titer-Glo reagent (Promega, Madison, Wis.) according to the manufacturer's instructions. Cell viability IC50 values were calculated using XLFit, equation 201. y=A+((B−A)/(1+((x/C)^D))), where A=bottom, B=top, C=IC50, and D=slope. IC50 values are shown in Table B and are presented in ranges, in which “+++”<300 nM, 300 nM≤“++”<3000 nM, and “+”≥3000 nM. Values for percent inhibition at 10 μM are also shown in Table B and are presented in ranges, in which “***”≥67%, 33%: “**”≤67%, and “*”<33%. Effects of the test compounds on the viability of other cell lines such as MDA-MB-436, MDA-MB-231, SUM149PT, HCC1395, and UWB1.289 are determined in an analogous method.

Experiment [2] concerns DLD-1 wild-type colorectal adenocarcinoma cells. Kind of experiment: Cell viability assay (Cell Titer-Glo, 7 days), DLD-1 wild-type. Type of experiment: cell-based. As to conditions: Homo sapiens, 168 h, DLD-1 wild-type cells, read-out: DLD-1 wild-type % inh at 10 μM.
Description: as §1, §2
On the technique in general: In ATP-based viability assays light output follows the ATP content of the culture.

[3] abbreviates: percent inhibition at 10 μM, fluorescence polarization, GST-tagged PARP2 20 nM, PARP1-FL probe 3 nM.

Sequence of recombinant human PARP1 (P09874 whole entry): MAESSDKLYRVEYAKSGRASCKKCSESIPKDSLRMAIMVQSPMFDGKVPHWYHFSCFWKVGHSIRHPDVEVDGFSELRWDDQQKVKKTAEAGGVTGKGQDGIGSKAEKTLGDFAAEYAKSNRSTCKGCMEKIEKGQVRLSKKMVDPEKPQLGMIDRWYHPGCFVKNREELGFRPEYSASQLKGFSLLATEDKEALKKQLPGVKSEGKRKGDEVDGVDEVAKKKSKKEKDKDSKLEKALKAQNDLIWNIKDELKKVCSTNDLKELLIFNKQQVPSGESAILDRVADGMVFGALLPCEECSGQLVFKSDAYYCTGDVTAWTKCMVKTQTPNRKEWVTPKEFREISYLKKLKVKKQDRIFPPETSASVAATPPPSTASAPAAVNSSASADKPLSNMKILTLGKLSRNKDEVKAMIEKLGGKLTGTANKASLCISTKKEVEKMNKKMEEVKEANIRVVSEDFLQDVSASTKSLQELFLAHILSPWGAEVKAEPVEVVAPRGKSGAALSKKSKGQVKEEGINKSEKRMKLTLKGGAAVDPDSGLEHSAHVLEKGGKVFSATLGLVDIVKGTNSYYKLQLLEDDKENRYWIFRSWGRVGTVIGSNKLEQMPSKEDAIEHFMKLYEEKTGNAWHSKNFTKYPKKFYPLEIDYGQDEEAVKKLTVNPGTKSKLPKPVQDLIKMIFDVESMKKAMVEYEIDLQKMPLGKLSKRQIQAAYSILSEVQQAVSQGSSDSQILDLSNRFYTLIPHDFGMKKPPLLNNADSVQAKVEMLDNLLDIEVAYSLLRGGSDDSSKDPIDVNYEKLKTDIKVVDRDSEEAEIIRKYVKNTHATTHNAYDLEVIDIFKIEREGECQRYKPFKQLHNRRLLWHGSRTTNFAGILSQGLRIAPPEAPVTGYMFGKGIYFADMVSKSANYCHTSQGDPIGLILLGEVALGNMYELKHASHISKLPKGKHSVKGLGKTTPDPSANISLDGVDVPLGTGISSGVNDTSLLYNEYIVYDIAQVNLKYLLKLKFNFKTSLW
Sequence of recombinant human PARP2 (Q9UGN5 whole entry): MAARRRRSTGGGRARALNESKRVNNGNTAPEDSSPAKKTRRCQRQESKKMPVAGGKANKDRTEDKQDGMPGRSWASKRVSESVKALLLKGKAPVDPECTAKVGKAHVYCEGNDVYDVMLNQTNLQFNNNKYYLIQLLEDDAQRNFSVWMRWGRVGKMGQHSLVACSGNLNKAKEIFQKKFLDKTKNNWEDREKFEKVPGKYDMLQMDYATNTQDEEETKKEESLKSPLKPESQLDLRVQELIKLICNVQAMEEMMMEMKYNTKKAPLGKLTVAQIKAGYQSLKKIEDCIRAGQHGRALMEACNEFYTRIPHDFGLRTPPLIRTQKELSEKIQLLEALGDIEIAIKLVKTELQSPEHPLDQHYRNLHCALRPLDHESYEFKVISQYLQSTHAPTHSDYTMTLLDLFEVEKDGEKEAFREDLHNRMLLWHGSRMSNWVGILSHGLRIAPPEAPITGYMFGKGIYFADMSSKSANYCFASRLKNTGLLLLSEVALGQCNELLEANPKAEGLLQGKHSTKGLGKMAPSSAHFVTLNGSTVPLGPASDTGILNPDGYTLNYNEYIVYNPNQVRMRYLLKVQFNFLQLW

One may read the IC50 as the concentration that inhibits the measured activity by half. Turning to `CCNC(=O)Nc1cc(CN2CCN(c3ccc(C(=O)NC#N)nc3C)CC2)ccn1` [Compound 3, N-cyano-5-(4-((2-(3-ethylureido)pyridin-4-yl)methyl)piperazin-1-yl)-6-methylpicolinamide dihydrochloride], on recombinant human PARP1, the IC50 was not below 3000 nM.
As to `CCNC(=O)Nc1cc(CN2CCN(c3ccc(C(=O)CC)nc3C)CC2)ccn1` [Compound 7, 1-ethyl-3-(4-((4-(2-methyl-6-propionylpyridin-3-yl)piperazin-1-yl)methyl)pyridin-2-yl)urea], the inhibition at 10 µM on recombinant human PARP2 (setting [3]) is less than 33%; in experiment [2], 33 to 67%. The values for the IC50 (in experiment [1]; at recombinant human PARP1) were 300 to 3000 nM and less than 100 nM, respectively.
The corresponding values for `CCNC(=O)Nc1cc(CN2CCN(c3ccc(C(=O)NC)nc3F)CC2)ccn1` [Compound 9, 5-(4-((2-(3-ethylureido)pyridin-4-yl)methyl)piperazin-1-yl)-6-fluoro-N-methylpicolinamide] are less than 33%, less than 33%, less than 300 nM and less than 100 nM.
With `CCNC(=O)Nc1cc(CN2CCN(c3ccc(C(=O)NC)nc3C)CC2)ccn1` [Compound 13, 5-(4-((2-(3-ethylureido)pyridin-4-yl)methyl)piperazin-1-yl)-N,6-dimethylpicolinamide formate], the inhibition at 10 µM (on recombinant human PARP2; in experiment [2]) was less than 33% each time. Also, the values for the IC50 (in experiment [1]; on recombinant human PARP1) were less than 300 nM and less than 100 nM, respectively.
In the case of `CCNC(=O)Nc1cc(CN2CCN(c3ccc(C(=O)NC)nc3C(F)(F)F)CC2)ccn1` [Compound 21, 5-(4-((2-(3-ethylureido)pyridin-4-yl)methyl)piperazin-1-yl)-N-methyl-6-(trifluoromethyl)picolinamide trifluoroacetate], the inhibition at 10 µM (on recombinant human PARP2; in experiment [2]) was less than 33% throughout. The IC50 was less than 300 nM in experiment [1] and less than 100 nM on recombinant human PARP1.
Turning to `CCNC(=O)Nc1cc(CN2CCN(c3ccc(C(=O)NC)nc3C#N)CC2)ccn1` [Compound 22, 6-cyano-5-(4-((2-(3-ethylureido)pyridin-4-yl)methyl)piperazin-1-yl)-N-methylpicolinamide], the figures for the inhibition at 10 µM (on recombinant human PARP2 (setting [3]); in experiment [2]) were 33 to 67% and less than 33%, respectively. For the same molecule, the IC50 in experiment [1] was less than 300 nM; on recombinant human PARP1, less than 100 nM.
For the molecule `CCNC(=O)Nc1cc(CN2CCN(c3ccc(-n4cccn4)nc3C)CC2)ccn1` [Compound 24, 1-ethyl-3-(4-((4-(2-methyl-6-(1H-pyrazol-1-yl)pyridin-3-yl)piperazin-1-yl)methyl)pyridin-2-yl)urea], the inhibition at 10 µM (on recombinant human PARP2 (setting [3]); in experiment [2]) was less than 33% throughout. The half-maximal inhibitory concentration (IC50) in experiment [1] is less than 300 nM; on recombinant human PARP1 it was less than 100 nM.
With `CCNC(=O)Nc1cc(CN2CCN(c3ccc(C(=O)NC)nc3C)CC2=O)ccn1` [Compound 29, 5-(4-((2-(3-ethylureido)pyridin-4-yl)methyl)-3-oxopiperazin-1-yl)-N,6-dimethylpicolinamide], the inhibition at 10 µM (on recombinant human PARP2 (setting [3]); in experiment [2]) was less than 33% throughout. In addition, the IC50 was not below 3000 nM in experiment [1] and 100 to 3000 nM on recombinant human PARP1.
Regarding `CCNS(=O)(=O)Nc1cc(CN2CCN(c3ccc(C(=O)NC)nc3C)CC2)ccn1` [Compound 105, 5-(4-((2-((N-ethylsulfamoyl)amino)pyridin-4-yl)methyl)piperazin-1-yl)-N,6-dimethylpicolinamide], the inhibition at 10 µM at recombinant human PARP2 (setting [3]) was less than 33%. Besides, the IC50 on recombinant human PARP1 was not below 3000 nM.
In the case of `CCNC(=O)Nc1cc(CN2CCN(c3ccc(C(=O)NC)nc3C)CC2)no1` [Compound 279, 5-(4-((5-(3-ethylureido)isoxazol-3-yl)methyl)piperazin-1-yl)-N,6-dimethylpicolinamide], the IC50 at recombinant human PARP1 is less than 100 nM.
On the same count and under the same terms, the result for `CNC(=O)C(=O)Nc1cc(CN2CCN(c3ccc(C(=O)NC)nc3C)CC2)ns1` [Compound 280, N1-methyl-N2-(3-((4-(2-methyl-6-(methylcarbamoyl)pyridin-3-yl)piperazin-1-yl)methyl)isothiazol-5-yl) oxalamide formate] reads not below 3000 nM; that for `CCNC(=O)Nc1cc(CN2CCN(c3ccc(C(=O)NC)nc3C)CC2)n(C)n1` [Compound 281, 5-(4-((3-(3-ethylureido)-1-methyl-1H-pyrazol-5-yl)methyl)piperazin-1-yl)-N,6-dimethylpicolinamide trihydrochloride], less than 100 nM.
